Laboratory results taken from US20210213010A1, “TLR7/8 AGONISTS AND LIPOSOME COMPOSITIONS” (Torque Therapeutics, Inc., priority 2018, published 2021).
Where “and” joins values, the source holds several entries; their conditions need not be identical. Equal entries are not always repeated. Entries after “also recorded” stand apart in the source; their conditions may differ.

Experiments:
[1] = test system: RAW-Blue cells; assay: NF-κB induction in RAW-Blue reporter cells (RAW 264.7 macrophages, SEAP); format: cell-based; conditions: for EC50: RAW-Blue, sigmoidal 4PL fitting, 24 h; for Potency in the RAW-Blue cell assay: compared with R848
Source text: This example describes the general procedure used to assess the compounds' potency to induce NF-κB expression in RAW 264.7 macrophages cells that stably express secreted embryonic alkaline phosphatase (SEAP) upon induction of NF-κB. RAW-Blue™ reporter cells are commonly used for quantifying TLR7/8 agonist potencies in reporter cell assays. Conversely, we used RAW-Blue™ cells to evaluate the potencies of the synthesized derivatives, as previously reported^1. ^1 Ryu et al, J. Am. Chem. Soc. (2014), 136, 10823-10825
RAW 264.7 assays were carried out using RAW-Blue™ cells and QUANTI-Blue™ detection solution (Invivogen, Toulouse, France, at. #raw-sp and rep-qbs respectively). The assays carried out according to the protocol from Invivogen. RAW 264.7 macrophages were cultured in DMEM high glucose (4.5 g/L) supplemented with 10% (v/v) FBS, 1% (v/v) P/S, and Normocin™ (100 μg/ml). On the day of the study, the cells were seeded in a 96-well plate (ThermoFisher Scientific, Roskilde, Denmark) with 20 μL TLR7/8 agonist solutions per well at varying concentrations by adding 180 μL cell suspension, made by suspending cells to 0.55×10^6 cells per mL in the prepared cell medium added Zeocin™ (200 μg/ml), leading to a final concentration of 100×10^3 cells per well in triplicates. Cells were incubated with the TLR7/8 agonists, diluted from 10 mM DMSO stocks in PBS, at 37° C. with 5% CO2 for 24 h for SEAP production. 50 μL SEAP containing cell supernatant from each well was added 150 μL QUANTI-Blue™ detection solution and was incubated at 37° C. for 3-6 h. The resulting response was quantified spectrophotometrically at 640 nm and was normalized to the signal from a blank sample (DMSO dilution) run in parallel.
Half maximal effective concentration (EC50) values were determined from sigmoidal 4PL fittings from the resulting dose-response curves in GraphPad Prism.

[2] = Remote loading efficiency of small molecules into liposomes (PD-10 size exclusion, HPLC); format: physicochemical; conditions: for Remote loading efficiency 1 h (%) / Remote loading efficiency 3 h (%): mean (SD), n = 2
Outline: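 A lyophilized small-molecule powder (modified TLR agonist) was combined with liposome formulation at the desired drug/lipid ratio and stirred at elevated temperature. At 1 h and 3 h, 100 μL of mixture plus 900 μL buffer (25 mM HEPES, 10 vol % sucrose, pH 7.4) went onto a PD-10 size exclusion column. Ten 1 mL fractions were collected, and HPLC quantified compound in the liposome fractions as a percentage of the amount applied.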

[3] = Cryo-TEM of remote loaded liposomes (intraliposomal precipitation); format: physicochemical; conditions: formulation F3, drug to lipid ratio 0.1
Method: CryoTEM samples of 3 μL of liposome solution was placed on a lacy carbon 300 mesh copper TEM grid, blotted and plunge frozen in liquid ethane using a FEI Vitrobot Mark IV. Samples were imaged using a FEI Tecnai G2 20 TWIN transmission electron microscope operated at 200 keV in low dose mode with a FEI High-Sensitive (HS) 4 k×4 k Eagle camera.

[4] = target: T1, mTLR7 (Mus musculus, UniProt P58681); assay: NF-κB induction in HEK-Blue mTLR7 reporter cells; format: cell-based
T1 construct: host or cells: HEK-Blue (HEK293-derived) reporter cells
T1 sequence (P58681 27-1050): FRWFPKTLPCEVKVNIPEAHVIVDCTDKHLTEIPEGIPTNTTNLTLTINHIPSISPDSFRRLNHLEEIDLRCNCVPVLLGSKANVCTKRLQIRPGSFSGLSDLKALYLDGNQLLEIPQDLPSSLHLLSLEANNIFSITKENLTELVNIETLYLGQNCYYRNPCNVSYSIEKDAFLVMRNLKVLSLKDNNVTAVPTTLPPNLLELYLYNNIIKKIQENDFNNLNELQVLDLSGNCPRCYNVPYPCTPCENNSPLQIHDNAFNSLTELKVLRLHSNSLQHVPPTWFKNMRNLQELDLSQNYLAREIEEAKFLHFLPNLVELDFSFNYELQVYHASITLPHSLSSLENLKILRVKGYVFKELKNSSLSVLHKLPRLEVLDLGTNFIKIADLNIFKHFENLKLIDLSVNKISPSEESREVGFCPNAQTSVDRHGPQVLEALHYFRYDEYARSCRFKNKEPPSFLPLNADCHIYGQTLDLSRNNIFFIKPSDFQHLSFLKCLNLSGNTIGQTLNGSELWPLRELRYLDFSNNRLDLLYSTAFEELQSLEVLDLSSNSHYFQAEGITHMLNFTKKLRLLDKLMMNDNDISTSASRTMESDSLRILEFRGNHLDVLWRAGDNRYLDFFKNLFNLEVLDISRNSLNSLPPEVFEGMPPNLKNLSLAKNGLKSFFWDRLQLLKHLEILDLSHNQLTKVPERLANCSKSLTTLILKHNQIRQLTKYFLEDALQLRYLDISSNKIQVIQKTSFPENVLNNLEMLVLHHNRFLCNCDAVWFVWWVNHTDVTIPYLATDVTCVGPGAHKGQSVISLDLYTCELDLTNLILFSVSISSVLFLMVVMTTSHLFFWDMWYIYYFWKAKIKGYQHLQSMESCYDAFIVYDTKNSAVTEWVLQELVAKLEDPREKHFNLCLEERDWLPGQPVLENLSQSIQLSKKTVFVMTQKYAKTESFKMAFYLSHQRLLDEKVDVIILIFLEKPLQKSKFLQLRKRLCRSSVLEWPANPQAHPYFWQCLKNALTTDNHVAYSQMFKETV
Source text: This example describes the general procedure used to assess the compounds' potency to induce NF-κB expression in human embryonic kidney (HEK) cells. The transcription factor NF-κB is expressed upon stimulation of TLR7/8 and is commonly used for quantifying TLR7/8 agonist potencies in reporter cell assays. Conversely, we used HEK-Blue mTLR-7 cells to evaluate the potencies of the synthesized derivatives, as previously reported (Shukla et al, J. Med. Chem. (2010), 53, 4450-4465).
HEK-Blue TLR7 assays were carried out using HEK-Blue™ mTLR7 cells (Invivogen, Toulouse, France, Cat. #hkb-mtlr7). The assays were carried out according to the protocol from Invivogen. TLR expressing cells were cultured in DMEM high glucose (4.5 g/L) supplemented with 10% (v/v) fetal bovine serum (FBS) and 1% (v/v) penicillin-streptomycin (P/S) to 50 U/ml penicillin and […] streptomycin. On the day of the study, the cells were seeded in a 96-well plate (ThermoFisher Scientific, Roskilde, Denmark) with 20 μL imidazoquinoline TLR7/8 agonist solutions per well at varying concentrations by adding 180 μL cell suspension, made by suspending cells to 0.22×10^6 cells per mL in HEK-Blue™ Detection medium (Invivogen, Cat. #hb-det2) added Blasticidin (10 μg/ml) and Zeocin™ (100 μg/ml), leading to a final concentration of 40×10^3 cells per well in triplicates. Cells were incubated with the imidazoquinoline TLR7/8 agonists, formulated in liposomes or dissolved in PBS, at 37° C. with 5% CO2 for 16 h. The response was quantified spectrophotometrically at 655 nm and was normalized to the signal from a blank sample (DMSO dilution) run in parallel.

[5] = formulation F3, drug/lipid ratio 0.10, 1 h
[6] = formulation F3, drug/lipid ratio 0.10, 3 h
[7] = formulation F3, drug/lipid ratio 0.25, 1 h
[8] = formulation F3, drug/lipid ratio 0.25, 3 h

Row | EC50 [1] [µM] | Remote loading efficiency 1 h (%) [2, 5] | Remote loading efficiency 3 h (%) [2, 6] | Remote loading efficiency 1 h (%) [2, 7] | Remote loading efficiency 3 h (%) [2, 8] | Remote loading efficiency 1 h (%) ([2]; formulation F3, drug/lipid ratio 0.50, 1 h) | Remote loading efficiency 3 h (%) ([2]; formulation F3, drug/lipid ratio 0.50, 3 h) | Intraliposomal precipitation (Cryo-TEM) [3] | TLR7 agonist activity (NF-κB induction) ([4]; liposomal, formulation F3) | Loading efficiency ([2]; formulation F3, drug/lipid ratio 0.1, time not specified (within 3 h)) [%] | Remote loading efficiency 1 h (%) ([2]; formulation F4 (250 mM ammonium sulfate), drug/lipid ratio 0.10, 1 h) | Remote loading efficiency 3 h (%) ([2]; formulation F4 (250 mM ammonium sulfate), drug/lipid ratio 0.10, 3 h) | Remote loading efficiency 1 h (%) ([2]; formulation F4 (250 mM ammonium sulfate), drug/lipid ratio 0.25, 1 h) | Remote loading efficiency 3 h (%) ([2]; formulation F4 (250 mM ammonium sulfate), drug/lipid ratio 0.25, 3 h) | Structure (SMILES) | Potency in the RAW-Blue cell assay [1] | TLR7 agonist activity (NF-κB induction) ([4]; free compounds, 16 h)
1 | 0.03 | 93.8 (5.8) % | 96.7 (1.3) % | 45.9 (1.9) % | 48.9 (2.1) % | 19.7 (0.4) % | 20% and 19.5 (1.1) % | slight precipitation | potencies much higher than R848 | – | – | – | – | – | CCCCc1nc2c(N)nc3ccccc3c2n1Cc1ccc(CN)cc1 [MK130, 1-(4-(aminomethyl)benzyl)-2-butyl-1H-imidazo[4,5-c]quinolin-4-amine] | the most potent compounds | –
2 | 0.04 | 82.5 (1.2) % and 82.6 (1.2) % | 86% and 86.2 (0.2) % and 86.2 (0.1) % | 5% and 5.1 (0.1) % | 0.5 (0.1) % | – | – | precipitated to form rod-like crystals | potencies much higher than R848 | ≤ 90 | 96.5 (3.3) % | 100% and 100.0 (0.1) % | 93% and 93.0 (5.7) % | 96.5 (0.7) % | CCCCc1nc2c(N)nc3ccccc3c2n1Cc1ccc(CNC(=O)[C@@H](N)Cc2ccccc2)cc1 [MK138, (S)-2-amino-N-(4-((4-amino-2-butyl-1H-imidazo[4,5-c]quinolin-1-yl)methyl)benzyl)-3-phenylpropanamide] | greater potencies than R848 | a higher response than both MK130 and R848 at 1 μM; also recorded: only little activity was observed at concentrations <0.32 μM
